According to patent US20250179029A1, “DEUTERATED RETINOIDAL COMPOUNDS AND SYNTHESIS AND USES THEREOF” (UNIVERSITY OF MARYLAND, BALTIMORE, priority 2022, published 2025):
Read-outs that look alike come from different tables or passages of the source.

Assays:
[1] = Plasma pharmacokinetics after single oral dose in female CD-1 mice; assay type: in vivo; settings: for AUC(0-inf) / MRT (mean residence time) / T1/2 (elimination half-life) / Tmax / Cmax / overall Rank by Total Score: single p.o. dose 10 mg/kg, female CD-1 mice; for AUC(0-inf) / MRT (mean residence time) / T1/2 (elimination half-life) / Tmax / Cmax: plasma; for Cmax: mean of three mice; for clearance from systemic circulation (plasma concentration versus time profile) / systemic exposure: single PO dosing, mice, FIGS. 12A-12C
Protocol: The PK study was performed by the Certified Research Organization (CRO), Aragen Life Sciences Private Limited (Aragen), Hyderabad, India. All procedures of the present study were in accordance with the guidelines provided by the Committee for the Purpose of Control and Supervision of Experiments on Animals (CPCSEA) as published in The Gazette of India, Jan. 7, 2010. CPCSEA renewal number for institute is 1125/PO/Rc/S/CPCSEA on 13Feb. 2014. Institutional Animal Ethics Committee (IAEC) approval has been taken to initiate the study (IAEC Approval Number: B-011A). The details are presented in the Supplementary Materials.
To minimize the number of mice used in the PK study using a validated LC/MS/MS analysis, both individual (discrete) (set #1: Compound 5, EM=463.2937 and set #2: […], EM=463.2937) and cassette (set #3: Compounds 2, 3, and 7; EMs=459.2686, 462.2874 and 466.3125, respectively, and set #4: Compounds 4, 8, and 9; EMs=460.2749, 464.2999 and 467.3188, respectively) dosing were used.^59,66 The four sets studied were dictated by the exact molecular masses of the compounds as indicated above and in FIG. 3.
The plasma PK profiles were obtained after single oral (PO) dosing of the compounds in mice.
In Table 2, data are presented as the mean of values obtained from three female CD-1 mice. Cmax is the maximum observed plasma concentration. Tmax is the time to maximum concentration. T1/2 is the elimination half-life. AUC represents AUC (0-∞), which is the area under the concentration-time curve from time of dosing extrapolated to infinity. MRT refers to mean residence time. The number in parentheses indicate the rank order from best (1) to worst (8).

[2] = tested on: SKBR3; assay: MTT antiproliferative assay, SKBR3 non-TNBC cells; assay type: cell-based; settings: Homo sapiens, SK-BR-3, mean of three independent experiments
Protocol: (§1) Compounds 2, 4, 8 and 9, as well as paclitaxel (PTX) were evaluated over a range of concentrations to examine their antiproliferative activities against two non-TNBC cell lines, MCF7 and SKBR3using the well-established 3-(4,5-dimethylthiazolyl-2)-2,5-diphenyl tetrazolium bromide (MTT) assay.^48,55,56 The parent non-deuterated VNLG-152R (Compound 2) was used as the positive control.
(§2) As presented in Table 1 below, the GI50 values of the deuterated Compounds 4, 8 and 9 against the MCF7 cell are identical to the GI50 value of the parent protio VNLG-152R (Compound 2). In contrast, the SKBR3 cell appears to be more sensitive to the deuterated compounds compared to the parent non-deuterated VNLG-152R (Compound 2). The reason for this difference is not understood at this time. The applicant hypothesizes that the enhanced diffusion of these deuterated molecules across the cell membrane of this cell line may result in enhanced intracellular concentrations and inhibition of its proliferation. Each data point is a mean of replicates from three independent experiments.

[3] = tested on: MCF7; assay: MTT antiproliferative assay, MCF7 non-TNBC cells; assay type: cell-based; settings: Homo sapiens, mean of three independent experiments
Protocol: as §1, §2

[4] = tested on: MDA-MB-468 tumor xenograft; assay: Anti-tumor activity in MDA-MB-468 xenograft mouse model; assay type: in vivo; settings: 20 mg/kg, PO, 5 days/week, 16 days
Protocol: (§3) FIGS. 13A-13D show the anti-tumor activity of VNLG-152R, Compound 4, Compound 8, and Compound 9 in xenograft mouse models. […] In FIGS. 13B and 13D, *=p<0.0001.
(§4) After confirming the improved pharmacokinetic parameters of deuterated compounds 4, 8, and 9, the anti-tumor activity of these compounds was tested in xenograft models of MDA-MB-231 and MDA-MB-468. In both models, the mice for each group were treated with either vehicle (control) or the compounds, each at 20 mg/kg, PO, 5 days/week.

[5] = tested on: MDA-MB-231 tumor xenograft; assay: Anti-tumor activity in MDA-MB-231 xenograft mouse model; assay type: in vivo; settings: 20 mg/kg, PO, 5 days/week, 16 days
Protocol: as §3, §4

[6] = tested on: androgen-sensitive and castration-resistant human prostate cancer cells; settings: androgen-sensitive and castration-resistant human prostate cancer cells in vitro; cited from earlier work

Structure (SMILES) | AUC(0-inf) ([1]; mouse, po) | MRT (mean residence time) [1] | T1/2 (elimination half-life) [1] | Tmax [1] | Cmax [1] | GI50 [2] | GI50 [3] | further results
CC(=O)O[C@H]1C(=O)[C@@]2(C)[C@H]([C@H](OC(=O)c3ccccc3)[C@]3(O)C[C@H](OC(=O)[C@H](O)[C@@H](NC(=O)c4ccccc4)c4ccccc4)C(C)=C1C3(C)C)[C@]1(OC(C)=O)CO[C@@H]1C[C@@H]2O [Paclitaxel, paclitaxel, reference compound] |  |  |  |  |  | 60 ± 120 nM | 60 ± 120 nM | 
CC1=C(/C=C/C(C)=C/C=C/C(C)=C/C(=O)Nc2ccc(F)cc2)C(C)(C)CCC1=O [Compound 16, 4-Oxo-(4′-fluoro(phenyl))-(E)-retinamide] |  | 9.06 h | 12.05 h |  |  |  |  | 
[2H]c1c([2H])c(NC(=O)/C=C(C)/C=C/C=C(C)/C=C/C2=C(C)C(n3ccnc3)CCC2(C)C)c([2H])c([2H])c1F (racemic) [Compound 6, (±) 4-Imidazolyl-4(H)-(4′-fluoro(phenyl-2′3′5′6′-D4))-(E)-retinamide] | 1730 ng·h/mL | 4.63 h | 4.90 h |  | 272.72 ng/mL |  |  | Tmax ([1]; mouse, po, read-out: Tmax): 0.83 h
[2H]c1nc([2H])n(C2CCC(C)(C)C(/C=C/C(C)=C/C=C/C(C)=C/C(=O)Nc3c([2H])c([2H])c(F)c([2H])c3[2H])=C2C)c1[2H] (racemic) [Compound 7, (±) 4-(Imidazolyl-2″3″5″-D3)-4-(H)-(4′-fluoro(phenyl-2′3′5′6′-D4))-(E)-retinamide] | 2060 ng·h/mL | 2.89 h | 4.34 h | 0.83 h | 454.97 ng/mL |  |  | 
[2H]c1c([2H])c(NC(=O)/C=C(C)/C=C/C=C(C)/C=C/C2=C(C)C([2H])(n3ccnc3)CCC2(C)C)c([2H])c([2H])c1F (racemic) [Compound 8, (±) 4-(Imidazolyl)-4-(D)-(4′-fluoro(phenyl-2′3′5′6′-D4))-(E)-retinamide] | 15500 ng·h/mL | 8.48 h | 10.20 h | 0.75 h | 1361.22 ng/mL | 110 ± 200 nM | 330 ± 140 nM | reduction of tumor growth [4]: 93%; reduction of tumor growth [5]: 95%; clearance from systemic circulation (plasma concentration versus time profile) [1]: could not be detected after 8 hours; systemic exposure [1]: very low systemic exposures; overall Rank by Total Score [1]: 3rd
CC1=C(/C=C/C(C)=C/C=C/C(C)=C/C(=O)Nc2ccccc2)C(C)(C)CCC1n1ccnc1 (centres unmarked) [VNLG-153, (2E,4E,6E,8E)-9-(3-imidazolyl-2,6,6-trimethylcyclohex-1-enyl)-3,7-dimethyl-N-phenylnona-2,4,6,8-tetraenamide] |  |  |  |  |  |  |  | anti-proliferative and anti-metastatic activities [6]: potent
CC1=C(/C=C/C(C)=C/C=C/C(C)=C/C(=O)Nc2ccccc2O)C(C)(C)CCC1n1ccnc1 (centres unmarked) [VNLG-147, (2E,4E,6E,8E)-N-(2-hydroxyphenyl)-9-(3-imidazolyl-2,6,6-trimethylcyclohex-1-enyl)-3,7-dimethylnona-2,4,6,8-tetraenamide] |  |  |  |  |  |  |  | anti-proliferative and anti-metastatic activities [6]: potent

Second part, led by results:

AUC(0-inf) ([1]; mouse, po) | MRT (mean residence time) [1] | T1/2 (elimination half-life) [1] | Tmax [1] | Cmax [1] | GI50 [2] | GI50 [3] | Structure (SMILES) | further results
2700 ng·h/mL | 5.49 h | 4.27 h | 0.67 h | 500.72 ng/mL |  |  | [2H]c1nc([2H])n(C2([2H])CCC(C)(C)C(/C=C/C(C)=C/C=C/C(C)=C/C(=O)Nc3ccc(F)cc3)=C2C)c1[2H] (racemic) [Compound 5, (±) 4-(Imidazolyl-2″3″5″-D3)-4-(D)-(4′-fluoro(phenyl))-(E)-retinamide] | 
1740 ng·h/mL | 3.57 h | 8.39 h | 1.33 h | 151.17 ng/mL |  |  | [2H]c1nc([2H])n(C2CCC(C)(C)C(/C=C/C(C)=C/C=C/C(C)=C/C(=O)Nc3ccc(F)cc3)=C2C)c1[2H] (racemic) [Compound 3, (±) 4-(Imidazolyl-2″3″5″-D3)-4-(H)-(4′-fluoro(phenyl))-(E)-retinamide] | 
17600 ng·h/mL | 9.06 h | 12.05 h | 2.50 h | 1031.65 ng/mL | 140 ± 230 nM | 230 ± 250 nM | [2H]C1(n2ccnc2)CCC(C)(C)C(/C=C/C(C)=C/C=C/C(C)=C/C(=O)Nc2ccc(F)cc2)=C1C (racemic) [Compound 4, (±) 4-(Imidazolyl)-4-(D)-(4′-fluoro(phenyl))-(E)-retinamide] | tumor regression [4]: 6.6%; reduction of tumor growth [5]: 95%; clearance from systemic circulation (plasma concentration versus time profile) [1]: could not be detected after 8 hours; systemic exposure [1]: very low systemic exposures; overall Rank by Total Score [1]: 2nd
22600 ng·h/mL | 8.92 h | 10.28 h | 2.67 h | 1615.81 ng/mL | 100 ± 140 nM | 220 ± 130 nM | [2H]c1nc([2H])n(C2([2H])CCC(C)(C)C(/C=C/C(C)=C/C=C/C(C)=C/C(=O)Nc3c([2H])c([2H])c(F)c([2H])c3[2H])=C2C)c1[2H] (racemic) [Compound 9, (±) 4-(Imidazolyl-2″3″5″-D3)-4-(D)-(4′-fluoro(phenyl-2′3′5′6′-D4))-(E)-retinamide] | tumor regression [4]: 37%; tumor regression [5]: 67%
